{"source": "patent US20240000872A1", "about": "“NOVEL BACTERIOPHAGE THAT LYSES ACINETOBACTER GENUS BACTERIA HAVING RESISTANCE TO ANTIBIOTICS” (priority 2020, published 2024)", "system": "Acinetobacter baumannii strains", "assay": "Antibiotic susceptibility test (CLSI disk diffusion test method, read per CLSI 2016); as to antibiotic susceptibility class: key: ‘S’ means susceptible; ‘I’ means intermediate; ‘R’ means resistant", "format": "cell-based", "design": "antibiotic susceptibility test value / susceptibility test value (number given before S/I/R) / antibiotic susceptibility value: unit not given here"}
{"substance": "gentamicin", "values": [{"measurement": "antibiotic susceptibility class", "setting": "host strain YMC14/01/C29", "value": "R"}, {"measurement": "antibiotic susceptibility test value", "setting": "host strain YMC14/01/C29", "value": 16}, {"measurement": "antibiotic susceptibility class", "setting": "host strain YMC14/01/IP122", "value": "R"}, {"measurement": "antibiotic susceptibility test value", "setting": "host strain YMC14/01/IP122", "value": 16}, {"measurement": "antibiotic susceptibility class", "setting": "host strain YMC14/01/L8", "value": "R"}, {"measurement": "antibiotic susceptibility test value", "setting": "host strain YMC14/01/L8", "value": 16}, {"measurement": "antibiotic susceptibility class", "setting": "host strain YMC14/01/P31", "value": "R"}, {"measurement": "antibiotic susceptibility test value", "setting": "host strain YMC14/01/P31", "value": 16}, {"measurement": "antibiotic susceptibility class", "setting": "host strain YMC14/01/P117", "value": "R"}, {"measurement": "antibiotic susceptibility test value", "setting": "host strain YMC14/01/P117", "value": 16}, {"measurement": "antibiotic susceptibility class", "setting": "host strain YMC14/01/P224", "value": "R"}, {"measurement": "antibiotic susceptibility test value", "setting": "host strain YMC14/01/P224", "value": 16}, {"measurement": "antibiotic susceptibility class", "setting": "host strain YMC14/01/P727", "value": "R"}, {"measurement": "antibiotic susceptibility test value", "setting": "host strain YMC14/01/P727", "value": 16}, {"measurement": "antibiotic susceptibility class", "setting": "host strain YMC14/01/P728", "value": "R"}, {"measurement": "antibiotic susceptibility test value", "setting": "host strain YMC14/01/P728", "value": 16}, {"measurement": "antibiotic susceptibility class", "setting": "host strain YMC14/01/R130", "value": "R"}, {"measurement": "antibiotic susceptibility test value", "setting": "host strain YMC14/01/R130", "value": 16}, {"measurement": "antibiotic susceptibility class", "setting": "host strain YMC14/01/R160", "value": "R"}, {"measurement": "antibiotic susceptibility test value", "setting": "host strain YMC14/01/R160", "value": 16}, {"measurement": "antibiotic susceptibility class", "setting": "host strain YMC14/01/R198", "value": "R"}, {"measurement": "antibiotic susceptibility test value", "setting": "host strain YMC14/01/R198", "value": 16}, {"measurement": "antibiotic susceptibility class", "setting": "host strain YMC14/01/R257", "value": "S"}, {"measurement": "antibiotic susceptibility test value", "setting": "host strain YMC14/01/R257", "value": 1}, {"measurement": "antibiotic susceptibility class", "setting": "host strain YMC14/01/R270", "value": "R"}, {"measurement": "antibiotic susceptibility test value", "setting": "host strain YMC14/01/R270", "value": 16}, {"measurement": "antibiotic susceptibility class", "setting": "host strain YMC14/01/R324", "value": "R"}, {"measurement": "antibiotic susceptibility test value", "setting": "host strain YMC14/01/R324", "value": 16}, {"measurement": "antibiotic susceptibility class", "setting": "host strain YMC14/01/R443", "value": "R"}, {"measurement": "antibiotic susceptibility test value", "setting": "host strain YMC14/01/R443", "value": 16}, {"measurement": "antibiotic susceptibility class", "setting": "host strain YMC14/01/R451", "value": "R"}, {"measurement": "antibiotic susceptibility test value", "setting": "host strain YMC14/01/R451", "value": 16}, {"measurement": "antibiotic susceptibility class", "setting": "host strain YMC14/01/R560", "value": "S"}, {"measurement": "antibiotic susceptibility test value", "setting": "host strain YMC14/01/R560", "value": 2}, {"measurement": "antibiotic susceptibility class", "setting": "host strain YMC14/01/R617", "value": "R"}, {"measurement": "antibiotic susceptibility test value", "setting": "host strain YMC14/01/R617", "value": 16}, {"measurement": "antibiotic susceptibility class", "setting": "host strain YMC14/01/R671", "value": "R"}, {"measurement": "antibiotic susceptibility test value", "setting": "host strain YMC14/01/R671", "value": 16}, {"measurement": "antibiotic susceptibility class", "setting": "host strain YMC14/01/R732", "value": "R"}, {"measurement": "antibiotic susceptibility test value", "setting": "host strain YMC14/01/R732", "value": 16}, {"measurement": "antibiotic susceptibility class", "setting": "host strain YMC14/01/R767", "value": "R"}, {"measurement": "antibiotic susceptibility test value", "setting": "host strain YMC14/01/R767", "value": 16}, {"measurement": "antibiotic susceptibility class", "setting": "host strain YMC14/01/R904", "value": "R"}, {"measurement": "antibiotic susceptibility test value", "setting": "host strain YMC14/01/R904", "value": 16}, {"measurement": "antibiotic susceptibility class", "setting": "host strain YMC14/01/R905", "value": "R"}, {"measurement": "antibiotic susceptibility test value", "setting": "host strain YMC14/01/R905", "value": 16}, {"measurement": "antibiotic susceptibility class", "setting": "host strain YMC14/01/R921", "value": "I"}, {"measurement": "antibiotic susceptibility test value", "setting": "host strain YMC14/01/R921", "value": 8}, {"measurement": "antibiotic susceptibility class", "setting": "host strain YMC14/01/R941", "value": "R"}, {"measurement": "antibiotic susceptibility test value", "setting": "host strain YMC14/01/R941", "value": 16}, {"measurement": "antibiotic susceptibility class", "setting": "host strain YMC14/01/R958", "value": "R"}, {"measurement": "antibiotic susceptibility test value", "setting": "host strain YMC14/01/R958", "value": 16}, {"measurement": "antibiotic susceptibility class", "setting": "host strain YMC14/01/R1006", "value": "R"}, {"measurement": "antibiotic susceptibility test value", "setting": "host strain YMC14/01/R1006", "value": 16}, {"measurement": "antibiotic susceptibility class", "setting": "host strain YMC14/01/R1199", "value": "R"}, {"measurement": "antibiotic susceptibility test value", "setting": "host strain YMC14/01/R1199", "value": 16}, {"measurement": "antibiotic susceptibility class", "setting": "host strain YMC14/01/R1659", "value": "R"}, {"measurement": "antibiotic susceptibility test value", "setting": "host strain YMC14/01/R1659", "value": 16}, {"measurement": "antibiotic susceptibility class", "setting": "host strain YMC14/01/R1722", "value": "R"}, {"measurement": "antibiotic susceptibility test value", "setting": "host strain YMC14/01/R1722", "value": 16}, {"measurement": "antibiotic susceptibility class", "setting": "host strain YMC14/01/R1752", "value": "R"}, {"measurement": "antibiotic susceptibility test value", "setting": "host strain YMC14/01/R1752", "value": 16}, {"measurement": "antibiotic susceptibility class", "setting": "host strain YMC14/01/R2429", "value": "R"}, {"measurement": "antibiotic susceptibility test value", "setting": "host strain YMC14/01/R2429", "value": 16}, {"measurement": "antibiotic susceptibility class", "setting": "host strain YMC14/01/R2572", "value": "R"}, {"measurement": "antibiotic susceptibility test value", "setting": "host strain YMC14/01/R2572", "value": 16}, {"measurement": "antibiotic susceptibility class", "setting": "host strain YMC14/01/R2855", "value": "R"}, {"measurement": "antibiotic susceptibility test value", "setting": "host strain YMC14/01/R2855", "value": 16}, {"measurement": "antibiotic susceptibility class", "setting": "host strain YMC14/01/R2945", "value": "R"}, {"measurement": "antibiotic susceptibility test value", "setting": "host strain YMC14/01/R2945", "value": 16}, {"measurement": "antibiotic susceptibility class", "setting": "host strain YMC14/01/R3007", "value": "R"}, {"measurement": "antibiotic susceptibility test value", "setting": "host strain YMC14/01/R3007", "value": 16}, {"measurement": "antibiotic susceptibility class", "setting": "host strain YMC14/01/R3129", "value": "R"}, {"measurement": "antibiotic susceptibility test value", "setting": "host strain YMC14/01/R3129", "value": 16}, {"measurement": "antibiotic susceptibility class", "setting": "host strain YMC14/01/R3317", "value": "R"}, {"measurement": "antibiotic susceptibility test value", "setting": "host strain YMC14/01/R3317", "value": 16}, {"measurement": "antibiotic susceptibility class", "setting": "host strain YMC14/01/R3474", "value": "R"}, {"measurement": "antibiotic susceptibility test value", "setting": "host strain YMC14/01/R3474", "value": 16}, {"measurement": "antibiotic susceptibility class", "setting": "host strain YMC14/01/R3574", "value": "R"}, {"measurement": "antibiotic susceptibility test value", "setting": "host strain YMC14/01/R3574", "value": 16}, {"measurement": "antibiotic susceptibility class", "setting": "host strain YMC14/01/U313", "value": "R"}, {"measurement": "antibiotic susceptibility test value", "setting": "host strain YMC14/01/U313", "value": 16}, {"measurement": "antibiotic susceptibility class", "setting": "host strain YMC14/01/U318", "value": "R"}]}
